Experiment [1] has as its system Pseudomonas aeruginosa PAM1001. As to the kind of experiment: microbe, parasite or virus in culture. The class given is cell-based. Conditions: Pseudomonas aeruginosa, PAM1001, read-out: Inhibition (%) of growth of P. aeruginosa PAM1001. How it is done: For compounds labeled with the prefix ‘D’, potentiation is measured by inhibition of growth of Pseudomonas aeruginosa PAM1001 at varying concentrations of efflux pump inhibitors (EPIs) in the presence of levofloxacin (0.25 microg/mL). Bacteria are grown in Mueller Hinton Broth (MHB, Difco) with an initial inoculum of 1×10^6 CFU/mL. Kinetics of bacterial growth is monitored, during 18 h of incubation at 37° C., by measurement of the culture absorbance at 650 nm using a 96-well plate spectrophotometer (SpectraMax, Molecular Devices). The inhibitory effect of EPIs is expressed as a percentage of growth inhibition compared to a control bacterial culture grown in the presence of 0.25 microg/mL levofloxacin but without EPIs.

The subject of experiment [2] is Pseudomonas aeruginosa PAM1001. As to the kind of experiment: checkerboard assay (broth microdilution): levofloxacin MIC in presence of efflux pump inhibitor. The experiment is classed as cell-based. The method in brief: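 Checkerboard broth microdilution in Mueller Hinton Broth against P. aeruginosa PAM1001 (5×10^5 CFU/mL, early-log inoculum), levofloxacin and efflux pump inhibitor (up to 40 μg/mL) diluted along crossing axes. Plates incubated 20 h at 35° C; growth read at 650 nm and visually. Potentiation scored as reduced levofloxacin MIC.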

Where a name gives a salt, the structure may show the parent alone.

For orientation: inhibition means the change of the read-out against control, counted positive when it falls. As for `N[C@H]1CN[C@H](C(=O)N2C[C@H](NC(=O)[C@H](O)CCc3ccccc3)C[C@H]2C(=O)Nc2cnc3ccccc3c2)C1` (mixture of isomers) [Compound D101, trans-4-Amino-L-Prolyl-trans-4-((R)-2-Hydroxy-4-Phenylbutyrylamino)-L-Proline 3-Quinolylamide Trihydrochloride], in experiment [1], the inhibition at 20 µg/mL is 20% and the inhibition at 40 µg/mL was 94%.

`NCC(=O)N[C@H]1CN[C@H](C(=O)N2C[C@H](NC(=O)[C@H](O)CCc3ccccc3)C[C@H]2C(=O)Nc2cnc3ccccc3c2)C1` (mixture of isomers) [Compound D103, trans-4-Glycylamino-L-Prolyl-trans-4-((R)-2-Hydroxy-4-Phenylbutyrylamino)-L-Proline 3-Quinolylamide Trihydrochloride]: in experiment [1], the inhibition at 2.5 µg/mL worked out at 17%, the inhibition at 5 µg/mL stood at 6%, the inhibition at 10 µg/mL was 99% and the inhibition at 20 µg/mL turned out to be 100%. In addition, in experiment [1], the inhibition at 40 µg/mL worked out at 100%.

Consider `NCC(=O)N[C@@H]1CN[C@H](C(=O)N2C[C@H](NC(=O)[C@H](O)CCc3ccccc3)C[C@H]2C(=O)Nc2cnc3ccccc3c2)C1` (mixture of isomers) [Compound D104, cis-4-Glycylamino-L-Prolyl-trans-4-((R)-2-Hydroxy-4-Phenylbutyrylamino)-L-Proline 3-Quinolylamide Trihydrochloride], for which, in experiment [1], the inhibition at 2.5 µg/mL amounted to 18%, the inhibition at 5 µg/mL came out at 19%, the inhibition at 10 µg/mL turned out to be 14% and the inhibition at 20 µg/mL was 62%. Besides, the inhibition at 40 µg/mL in experiment [1] stood at 100%.

As to `NCC(=O)N[C@@H]1CN[C@@H](C(=O)N2C[C@H](NC(=O)[C@H](O)CCc3ccccc3)C[C@H]2C(=O)Nc2cnc3ccccc3c2)C1` (mixture of isomers) [Compound D105, trans-4-Glycylamino-D-Prolyl-trans-4-((R)-2-Hydroxy-4-Phenylbutyrylamino)-L-proline 3-Quinolylamide Trihydrochloride], in experiment [1], the inhibition at 2.5 µg/mL worked out at 19%, the inhibition at 5 µg/mL was determined as 18%, the inhibition at 10 µg/mL came out at 50% and the inhibition at 20 µg/mL amounted to 99%. Further, the inhibition at 40 µg/mL in experiment [1] amounted to 101%.

Take `NC[C@H]1CN[C@H](C(=O)N2C[C@H](NC(=O)[C@H](O)CCc3ccccc3)C[C@H]2C(=O)Nc2cnc3ccccc3c2)C1` (mixture of isomers) [Compound D109, trans-4-Aminomethyl-L-Prolyl-trans-4-((R)-2-Hydroxy-4-Phenylbutyrylamino)-L-Proline 3-Quinolylamide Trihydrochloride]: in experiment [1], the inhibition at 2.5 µg/mL came to 17%, the inhibition at 5 µg/mL was determined as 21%, the inhibition at 10 µg/mL was 98% and the inhibition at 20 µg/mL turned out to be 100%. Also, the inhibition at 40 µg/mL in experiment [1] was found to be 100%.

Take `CNCC(=O)N1C[C@H](N)C[C@H]1C(=O)N1C[C@H](NC(=O)[C@H](O)CCc2ccccc2)C[C@H]1C(=O)Nc1cnc2ccccc2c1` (mixture of isomers) [Compound D111, 1-(N-Methylglycyl)-trans-4-Amino-L-Prolyl-trans-4-((R)-2-Hydroxy-4-Phenylbutyrylamino)-L-Proline 3-Quinolylamide Trihydrochloride]: in experiment [1], the inhibition at 2.5 µg/mL was 20%, the inhibition at 5 µg/mL was determined as 20%, the inhibition at 10 µg/mL worked out at 19% and the inhibition at 20 µg/mL stood at 27%. Besides, the inhibition at 40 µg/mL in experiment [1] is 100%.

For orientation: MIC means the lowest concentration that inhibits growth of the organism. Turning to `C[C@H]1COc2c(N3CCN(C)CC3)c(F)cc3c(=O)c(C(=O)O)cn1c23` [levofloxacin, reference compound], the MIC in experiment [2] (Pseudomonas aeruginosa, PAM1001, read-out: MIC of levofloxacin against P. aeruginosa PAM1001) was found to be 4 µg/mL.

As to “(2R,4R)-4-(Aminomethyl)-N-(2-phenylethyl)-N-(3-quinolylcarbamoyl)ethyl]-2-pyrrolidinecarboxamide [Compound M45]”, the “Levofloxacin MIC Against P. aerugiuosa PAM1001 in Presence of Efflux Pump Inhibitor (EPI), Minimum Inhibitory Concentration” value in experiment [2] (EPI Conc. 0 μg/mL) was 4 µg/mL; in experiment [2] (EPI Conc. 0.625 μg/mL), 4 µg/mL; in experiment [2] (EPI Conc. 1.25 μg/mL) it was 4 µg/mL; in experiment [2] (EPI Conc. 2.5 μg/mL), 1 µg/mL; in experiment [2] (EPI Conc. 5 μg/ mL) it was 0.50 µg/mL; in experiment [2] (EPI Conc. 10 μg/mL), 0.03 µg/mL. For the same compound, the “Levofloxacin MIC Against P. aerugiuosa PAM1001 in Presence of Efflux Pump Inhibitor (EPI), Minimum Inhibitory Concentration” value in experiment [2] (EPI Conc. 20 μg/mL) and in experiment [2] (EPI Conc. 40 μg/mL) was 0.015 µg/mL in each case.

In the case of “(2R,4S)-4-(2-Aminoacetamideo)-N-(2-methylpropyl)-N-(7-ethyl-3-quinolylcarbamoyl)ethyl]-2-pyrrolidinecarboxamide [Compound M44]”, the “Levofloxacin MIC Against P. aerugiuosa PAM1001 in Presence of Efflux Pump Inhibitor (EPI), Minimum Inhibitory Concentration” value was determined as 4 µg/mL in experiment [2] (EPI Conc. 0 μg/mL); 4 µg/mL in experiment [2] (EPI Conc. 0.625 μg/mL); 4 µg/mL in experiment [2] (EPI Conc. 1.25 μg/mL); 4 µg/mL in experiment [2] (EPI Conc. 2.5 μg/mL); 1 µg/mL in experiment [2] (EPI Conc. 5 μg/ mL); 0.06 µg/mL in experiment [2] (EPI Conc. 10 μg/mL). Further, the figures for the “Levofloxacin MIC Against P. aerugiuosa PAM1001 in Presence of Efflux Pump Inhibitor (EPI), Minimum Inhibitory Concentration” value in experiment [2] (EPI Conc. 20 μg/mL) and in experiment [2] (EPI Conc. 40 μg/mL) were 0.015 µg/mL and 0.03 µg/mL, respectively.

Consider “(2R,4S)-4-[(2R)-2-Aminopropionamido]-N-(2-phenylethyl)-N-(3-quinolylcarbamoyl)ethyl]-2-pyrrolidinecarboxamide [Compound M42]”, for which the “Levofloxacin MIC Against P. aerugiuosa PAM1001 in Presence of Efflux Pump Inhibitor (EPI), Minimum Inhibitory Concentration” value in experiment [2] (EPI Conc. 0 μg/mL) is 4 µg/mL; in experiment [2] (EPI Conc. 0.625 μg/mL), 4 µg/mL; in experiment [2] (EPI Conc. 1.25 μg/mL), 4 µg/mL; in experiment [2] (EPI Conc. 2.5 μg/mL), 4 µg/mL; in experiment [2] (EPI Conc. 5 μg/ mL), 4 µg/mL; in experiment [2] (EPI Conc. 10 μg/mL), 0.50 µg/mL. Further, the “Levofloxacin MIC Against P. aerugiuosa PAM1001 in Presence of Efflux Pump Inhibitor (EPI), Minimum Inhibitory Concentration” value in experiment [2] (EPI Conc. 20 μg/mL) and in experiment [2] (EPI Conc. 40 μg/mL) was 0.06 µg/mL each time.

As to “(2S,4R)-4-(2-Aminoacetamideo)-N-(2-phenylethyl)-N-(3-quinolylcarbamoyl)ethyl]-2-pyrrolidinecarboxamide [Compound M43]”, the “Levofloxacin MIC Against P. aerugiuosa PAM1001 in Presence of Efflux Pump Inhibitor (EPI), Minimum Inhibitory Concentration” value came to 4 µg/mL in experiment [2] (EPI Conc. 0 μg/mL); 4 µg/mL in experiment [2] (EPI Conc. 0.625 μg/mL); 4 µg/mL in experiment [2] (EPI Conc. 1.25 μg/mL); 2 µg/mL in experiment [2] (EPI Conc. 2.5 μg/mL); 0.25 µg/mL in experiment [2] (EPI Conc. 5 μg/ mL); 0.125 µg/mL in experiment [2] (EPI Conc. 10 μg/mL). Moreover, the “Levofloxacin MIC Against P. aerugiuosa PAM1001 in Presence of Efflux Pump Inhibitor (EPI), Minimum Inhibitory Concentration” value in experiment [2] (EPI Conc. 20 μg/mL) was determined as 0.125 µg/mL; in experiment [2] (EPI Conc. 40 μg/mL) it was 0.06 µg/mL.

Turning to “(2S,4R)-4-(2-Aminoacetamido)-N-[4-benzyl-2-benzimidazolyl)ethyl]-2-pyrrolidinecarboxamide [Compound M99]”, the “Levofloxacin MIC Against P. aerugiuosa PAM1001 in Presence of Efflux Pump Inhibitor (EPI), Minimum Inhibitory Concentration” value in experiment [2] (EPI Conc. 0 μg/mL), in experiment [2] (EPI Conc. 0.625 μg/mL), in experiment [2] (EPI Conc. 1.25 μg/mL), in experiment [2] (EPI Conc. 2.5 μg/mL), in experiment [2] (EPI Conc. 5 μg/ mL) and in experiment [2] (EPI Conc. 10 μg/mL) was 4 µg/mL in each case. Moreover, the “Levofloxacin MIC Against P. aerugiuosa PAM1001 in Presence of Efflux Pump Inhibitor (EPI), Minimum Inhibitory Concentration” value worked out at 0.06 µg/mL in experiment [2] (EPI Conc. 20 μg/mL) and 0.03 µg/mL in experiment [2] (EPI Conc. 40 μg/mL).

Turning to “(2S,4R)-4-(Aminompropionamido)-N-[(1R)-3-phenyl-1-(3-quinolylcarbamolyl)propyl]-2-pyrrolidinecarboxamide [Compound M5]”, the “Levofloxacin MIC Against P. aerugiuosa PAM1001 in Presence of Efflux Pump Inhibitor (EPI), Minimum Inhibitory Concentration” value in experiment [2] (EPI Conc. 0 μg/mL) turned out to be 4 µg/mL; in experiment [2] (EPI Conc. 0.625 μg/mL), 4 µg/mL; in experiment [2] (EPI Conc. 1.25 μg/mL) it was 4 µg/mL; in experiment [2] (EPI Conc. 2.5 μg/mL), 4 µg/mL; in experiment [2] (EPI Conc. 5 μg/ mL) it was 2 µg/mL; in experiment [2] (EPI Conc. 10 μg/mL) it was 2 µg/mL. The entries for the “Levofloxacin MIC Against P. aerugiuosa PAM1001 in Presence of Efflux Pump Inhibitor (EPI), Minimum Inhibitory Concentration” value in experiment [2] (EPI Conc. 20 μg/mL) and in experiment [2] (EPI Conc. 40 μg/mL) were 0.50 µg/mL and 0.008 µg/mL, respectively.

The values are drawn from patent US6399629B1, “Efflux pump inhibitors” (priority 1998, dated 2002).
